Data taken from PubChem BioAssay (NCI).
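Grown in 96-well plates, cells were treated for 48 hours with each compound at five concentrations. Insufficient inhibition: endpoint recorded as highest concentration tested. GI50: concentration for 50% inhibition of growth. TGI is the concentration that stops growth completely.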

Assays:
Assay in all cases: NCI-60 cell line screen, 48 h
[1] = tested on: MDA-MB-435
[2] = tested on: KM12 colon
[3] = tested on: CCRF-CEM leukemia
[4] = tested on: OVCAR-4 ovarian
[5] = tested on: NCI/ADR-RES ovarian
[6] = tested on: A498 renal
[7] = tested on: SK-MEL-28 melanoma
[8] = tested on: M14 melanoma
[9] = tested on: HT29 colon
[10] = tested on: OVCAR-8 ovarian
[11] = tested on: SF-268 CNS
[12] = tested on: RXF 393 renal
[13] = tested on: SK-MEL-5 melanoma
[14] = tested on: UO-31 renal
[15] = tested on: PC-3 prostate
[16] = tested on: A549 NSCLC
[17] = tested on: HCT-116 colon
[18] = tested on: CAKI-1 renal
[19] = tested on: MOLT-4 leukemia
[20] = tested on: HL-60(TB) leukemia
[21] = tested on: MDA-MB-231 breast
[22] = tested on: 786-0 renal
[23] = tested on: OVCAR-5 ovarian
[24] = tested on: SN12C renal
[25] = tested on: IGROV1 ovarian
[26] = tested on: LOX IMVI melanoma
[27] = tested on: HCC-2998 colon
[28] = tested on: BT-549 breast
[29] = tested on: SR leukemia
[30] = tested on: DU-145 prostate
[31] = tested on: NCI-H23 lung
[32] = tested on: HOP-62 NSCLC
[33] = tested on: UACC-62 melanoma
[34] = tested on: SK-OV-3 ovarian
[35] = tested on: SF-295 CNS
[36] = tested on: MCF7 breast
[37] = tested on: ACHN renal
[38] = tested on: SW-620 colon
[39] = tested on: MALME-3M melanoma
[40] = tested on: NCI-H522 lung
[41] = tested on: T-47D breast
[42] = tested on: COLO 205 colon
[43] = tested on: SF-539 CNS
[44] = tested on: OVCAR-3 ovarian
[45] = tested on: K-562 leukemia
[46] = tested on: NCI-H460 lung
[47] = tested on: EKVX NSCLC
[48] = tested on: HCT-15 colon
[49] = tested on: HOP-92 NSCLC
[50] = tested on: NCI-H226 lung
[51] = tested on: SK-MEL-2 melanoma
[52] = tested on: SNB-19 CNS
[53] = tested on: UACC-257 melanoma
[54] = tested on: HS 578T breast
[55] = tested on: SNB-75 CNS
[56] = tested on: TK-10 renal

## COc1cc(/C=C/C(=O)CC(=O)/C=C/c2cc(OC)c(OC)c(OC)c2)cc(OC)c1OC
[1]
  GI50: 2.52 µM
  TGI: 7.23 µM
[2]
  GI50: 4.58 µM
  TGI: 63 µM
[3]
  GI50: 2.58 µM
  TGI: > 100 µM
[4]
  GI50: 3.27 µM
  TGI: 19.7 µM
[5]
  GI50: 4.18 µM
  TGI: > 100 µM
[6]
  GI50: 10.4 µM
  TGI: 42.9 µM
[7]
  GI50: 4.24 µM
  TGI: 32.8 µM
[8]
  GI50: 3.9 µM
  TGI: 40 µM
[9]
  GI50: 3.66 µM
  TGI: 13.6 µM
[10]
  GI50: 3.04 µM
  TGI: 13.8 µM
[11]
  GI50: 8.23 µM
  TGI: > 100 µM
[12]
  GI50: 3.09 µM
  TGI: 8.84 µM
[13]
  GI50: 4.51 µM
  TGI: 46 µM
[14]
  GI50: 3 µM
  TGI: 13.1 µM
[15]
  GI50: 3.02 µM
  TGI: > 100 µM
[16]
  GI50: 5.76 µM
  TGI: > 100 µM
[17]
  GI50: 1.71 µM
  TGI: 4.26 µM
[18]
  GI50: 3.27 µM
  TGI: 16.5 µM
[19]
  GI50: 2.98 µM
  TGI: > 100 µM
[20]
  GI50: 5.15 µM
  TGI: > 100 µM
[21]
  GI50: 3.13 µM
  TGI: 9.12 µM
[22]
  GI50: 4.05 µM
  TGI: 17.6 µM
[23]
  GI50: 17.2 µM
  TGI: > 100 µM
[24]
  GI50: 3.59 µM
  TGI: 37 µM
[25]
  GI50: 2.83 µM
  TGI: 8.22 µM
[26]
  GI50: 2.19 µM
  TGI: 9.14 µM
[27]
  GI50: 15.9 µM
  TGI: > 100 µM
[28]
  GI50: 4.28 µM
  TGI: 22.1 µM
[29]
  GI50: 2.19 µM
  TGI: 9.55 µM
[30]
  GI50: 6.71 µM
  TGI: 31.9 µM
[31]
  GI50: 3.34 µM
  TGI: 20.2 µM
[32]
  GI50: 4.45 µM
  TGI: 27.7 µM
[33]
  GI50: 3.17 µM
  TGI: 13.4 µM
[34]
  GI50: 12 µM
  TGI: 67.6 µM
[35]
  GI50: 3.16 µM
  TGI: 17.2 µM
[36]
  GI50: 2.13 µM
  TGI: > 100 µM
[37]
  GI50: 3.95 µM
  TGI: 14.1 µM
[38]
  GI50: 2.56 µM
  TGI: 11.3 µM
[39]
  GI50: 5.06 µM
  TGI: 21.7 µM
[40]
  GI50: 1.9 µM
  TGI: 3.78 µM
[41]
  GI50: 3.98 µM
  TGI: 84.5 µM
[42]
  GI50: 6.93 µM
  TGI: > 100 µM
[43]
  GI50: 4.85 µM
  TGI: 71.8 µM
[44]
  GI50: 2.34 µM
  TGI: 5.91 µM
[45]
  GI50: 2.82 µM
  TGI: > 100 µM
[46]
  GI50: 3.94 µM
  TGI: 18.4 µM
[47]
  GI50: 3.59 µM
  TGI: 40.9 µM
[48]
  GI50: 3.32 µM
  TGI: 12.7 µM
[49]
  GI50: 2.47 µM
  TGI: 8.34 µM
[50]
  GI50: 10.2 µM
  TGI: > 100 µM
[51]
  GI50: 5.87 µM
  TGI: 78.8 µM
[52]
  GI50: 4.36 µM
  TGI: > 100 µM
[53]
  GI50: 3.23 µM
  TGI: 31.1 µM
[54]
  GI50: 3 µM
  TGI: 9.51 µM
[55]
  GI50: 3.89 µM
  TGI: 50.5 µM
[56]
  GI50: 4.08 µM
  TGI: 19.2 µM
